Assay results reported in patent US11254668B2, “Pyrazolo[1,5-A]pyrazin-4-yl and related derivatives” (Pfizer Inc., priority 2017, dated 2022).
Read-outs that look alike come from different tables or passages of the source.

Legend:
Format in all cases: biochemical
TYK2 = TYK2 (Homo sapiens (Human), UniProt P29597); test: JAK Caliper Enzyme Assay at 1 mM ATP, TYK2
In short: (§1)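 Inhibition is measured as reduced phosphorylation of a synthetic peptide by the recombinant human kinase domain at 1 mM ATP. Conditions give 20–30% conversion at room temperature before EDTA quench, and on-chip separation of labelled substrate and product yields percent conversion for dose–response plotting.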

JAK1 = JAK1 (Homo sapiens (Human), UniProt P23458); test: JAK Caliper Enzyme Assay at 1 mM ATP, JAK1
JAK1, sequence (P23458 875-1153): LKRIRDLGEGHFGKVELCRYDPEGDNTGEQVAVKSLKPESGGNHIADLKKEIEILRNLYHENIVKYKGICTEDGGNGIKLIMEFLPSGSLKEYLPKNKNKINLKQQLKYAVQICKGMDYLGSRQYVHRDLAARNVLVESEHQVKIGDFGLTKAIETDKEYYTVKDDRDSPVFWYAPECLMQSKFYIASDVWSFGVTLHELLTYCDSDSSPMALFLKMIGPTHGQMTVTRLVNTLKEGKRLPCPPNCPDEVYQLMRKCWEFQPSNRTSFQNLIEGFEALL
In short: (§2)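 Recombinant human kinase domains phosphorylate a fluorescent synthetic peptide at 1 mM ATP, room temperature, with enzyme and time tuned for 20-30% conversion; EDTA-stopped. Product/substrate separated by microfluidic mobility shift; percent effect versus DMSO and positive controls fitted to IC50 (nM).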

JAK2 = JAK2 (Homo sapiens (Human), UniProt O60674); test: JAK Caliper Enzyme Assay at 1 mM ATP, JAK2
JAK2, sequence (O60674 849-1124): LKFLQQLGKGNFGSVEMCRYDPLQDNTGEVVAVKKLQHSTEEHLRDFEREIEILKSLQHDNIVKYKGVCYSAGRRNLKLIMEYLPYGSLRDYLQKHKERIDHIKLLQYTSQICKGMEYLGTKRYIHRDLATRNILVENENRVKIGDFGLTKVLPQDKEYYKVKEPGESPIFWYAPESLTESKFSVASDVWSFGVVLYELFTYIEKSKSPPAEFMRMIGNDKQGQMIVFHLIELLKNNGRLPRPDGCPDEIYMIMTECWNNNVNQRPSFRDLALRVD
In short: as §1

JAK3 = JAK3 (Homo sapiens (Human), UniProt P52333); test: JAK Caliper Enzyme Assay at 1 mM ATP, JAK3
JAK3, sequence (P52333 822-1111): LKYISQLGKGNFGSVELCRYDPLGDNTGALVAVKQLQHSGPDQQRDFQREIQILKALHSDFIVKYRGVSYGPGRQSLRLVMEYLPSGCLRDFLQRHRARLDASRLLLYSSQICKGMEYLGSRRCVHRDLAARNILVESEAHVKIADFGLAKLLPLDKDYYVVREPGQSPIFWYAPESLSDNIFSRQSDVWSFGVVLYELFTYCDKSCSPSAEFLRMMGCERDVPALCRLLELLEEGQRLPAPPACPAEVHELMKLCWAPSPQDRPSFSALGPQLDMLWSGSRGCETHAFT
In short: as §2

TYK2, sequence (P29597 897-1176): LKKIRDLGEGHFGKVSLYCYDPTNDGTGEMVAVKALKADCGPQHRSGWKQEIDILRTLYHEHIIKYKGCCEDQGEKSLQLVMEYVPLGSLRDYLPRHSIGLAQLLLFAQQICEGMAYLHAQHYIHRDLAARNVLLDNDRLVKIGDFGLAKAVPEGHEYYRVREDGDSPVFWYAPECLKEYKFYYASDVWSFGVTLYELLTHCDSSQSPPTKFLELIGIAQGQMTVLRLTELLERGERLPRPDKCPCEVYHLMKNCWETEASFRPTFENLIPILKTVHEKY

SMILES	IC50 (TYK2) [nM]	IC50 (JAK1) [nM]	IC50 (JAK2) [nM]	IC50 (JAK3) [nM]	IC50 (TYK2; JAK Caliper enzyme assay) [nM]	IC50 (JAK1; JAK Caliper enzyme assay) [nM]	IC50 (JAK2; JAK Caliper enzyme assay) [nM]	IC50 (JAK3; JAK Caliper enzyme assay) [nM]
N#CCC1(n2ccc(-c3nc(-c4ccn(C5COC5)n4)cc4ncccc34)n2)CN(CC(F)(F)F)C1 [Example 57, [3-(3-{7-[1-(oxetan-3-yl)-1H-pyrazol-3-yl]-1,6-naphthyridin-5-yl}-1H-pyrazol-1-yl)-1-(2,2,2-trifluoroethyl)azetidin-3-yl]acetonitrile]	257	> 10000	2350	> 10000	–	–	–	–
CS(=O)(=O)N1CC(CC#N)(n2cc(-c3cc(-c4cc[nH]n4)cc4ncccc34)cn2)C1 [Example 288, [1-(methylsulfonyl)-3-{4-[7-(1H-pyrazol-3-yl)quinolin-5-yl]-1H-pyrazol-1-yl}azetidin-3-yl]acetonitrile]	112	796	336	> 10000	–	–	–	–
CCN1CC(CC#N)(n2ccc(-c3nc(-c4c[nH]nc4N)cc4ncccc34)n2)C1 [Example 94, (3-{3-[7-(3-amino-1H-pyrazol-4-yl)-1,6-naphthyridin-5-yl]-1H-pyrazol-1-yl}-1-ethylazetidin-3-yl)acetonitrile]	94	2100	940	> 10000	–	–	–	–
Cc1nc(-c2cc3ncccc3c(-c3ccn(C4(CC#N)CN(CC(F)(F)F)C4)n3)n2)cn1C [Example 151, [3-{3-[7-(1,2-dimethyl-1H-imidazol-4-yl)-1,6-naphthyridin-5-yl]-1H-pyrazol-1-yl}-1-(2,2,2-trifluoroethyl)azetidin-3-yl]acetonitrile]	309	> 10000	1660	> 10000	–	–	–	–
N#CC[C@]1(n2ccc(-c3nc(-c4cccc(O)n4)cc4ncccc34)n2)C[C@@H](C#N)C1 [Example 181, cis-3-(cyanomethyl)-3-{3-[7-(6-hydroxypyridin-2-yl)-1,6-naphthyridin-5-yl]-1H-pyrazol-1-yl}cyclobutanecarbonitrile]	40	853	123	> 10000	–	–	–	–
N#CC[C@]1(n2ccc(-c3nc(-c4cc(CO)no4)cc4ncccc34)n2)C[C@@H](C#N)C1 [Example 146, cis-3-(cyanomethyl)-3-(3-{7-[3-(hydroxymethyl)-1,2-oxazol-5-yl]-1,6-naphthyridin-5-yl}-1H-pyrazol-1-yl)cyclobutanecarbonitrile]	26	400	99	> 10000	–	–	–	–
CS(=O)(=O)N1CC(CC#N)(n2ccc(-c3nc(-c4ccccc4CO)cc4ncccc34)n2)C1 [Example 255, [3-(3-{7-[2-(hydroxymethyl)phenyl]-1,6-naphthyridin-5-yl}-1H-pyrazol-1-yl)-1-(methylsulfonyl)azetidin-3-yl]acetonitrile]	3170	> 10000	> 10000	> 10000	–	–	–	–
N#CCC1(n2ccc(-c3nc(-c4cn(C5COC5)cn4)cc4ncccc34)n2)CN(CC(F)(F)F)C1 [Example 144, [3-(3-{7-[1-(oxetan-3-yl)-1H-imidazol-4-yl]-1,6-naphthyridin-5-yl}-1H-pyrazol-1-yl)-1-(2,2,2-trifluoroethyl)azetidin-3-yl]acetonitrile]	223	> 10000	1370	> 10000	–	–	–	–
Cc1cn([C@]2(CC#N)C[C@@H](C#N)C2)nc1-c1nc(-c2cn[nH]c2N)cc2ncccc12 [Example 276, trans-3-{3-[7-(5-amino-1H-pyrazol-4-yl)-1,6-naphthyridin-5-yl]-4-methyl-1H-pyrazol-1-yl}-3-(cyanomethyl)cyclobutanecarbonitrile]	144	3480	947	> 10000	–	–	–	–
Cc1cc(-c2nc(-c3ccn[nH]3)cc3ncccc23)nn1C1(CC#N)CN(S(C)(=O)=O)C1 [Example 267, [3-{5-methyl-3-[7-(1H-pyrazol-5-yl)-1,6-naphthyridin-5-yl]-1H-pyrazol-1-yl}-1-(methylsulfonyl)azetidin-3-yl]acetonitrile]	57	2950	843	> 10000	–	–	–	–
N#CCC1(n2ncc(-c3cc(-c4ccc(F)cn4)cc4ncccc34)n2)CC(C#N)C1 (stereo not drawn) [Example 348, trans-3-(cyanomethyl)-3-{4-[7-(5-fluoropyridin-2-yl)quinolin-5-yl]-2H-1,2,3-triazol-2-yl}cyclobutanecarbonitrile]	143	> 10000	876	> 10000	–	–	–	–
N#CC[C@]1(n2ncc(-c3cc(-c4cn[nH]c4N)cc4ncccc34)n2)C[C@H](C#N)C1 [Example 319, trans-3-{4-[7-(5-amino-1H-pyrazol-4-yl)quinolin-5-yl]-2H-1,2,3-triazol-2-yl}-3-(cyanomethyl)cyclobutanecarbonitrile]	16	1250	530	> 10000	–	–	–	–
Cc1cc(-c2nc(-c3cc[nH]n3)cc3ncccc23)nn1[C@]1(CC#N)C[C@@H](C#N)C1 [Example 269, trans-3-(cyanomethyl)-3-{5-methyl-3-[7-(1H-pyrazol-3-yl)-1,6-naphthyridin-5-yl]-1H-pyrazol-1-yl}cyclobutanecarbonitrile]	27	1380	447	> 10000	–	–	–	–
CO[C@H]1C[C@](CC#N)(n2ccc(-c3nc(-c4cc(CO)n[nH]4)cc4ncccc34)n2)C1 [Example 50, [trans-1-(3-{7-[3-(hydroxymethyl)-1H-pyrazol-5-yl]-1,6-naphthyridin-5-yl}-1H-pyrazol-1-yl)-3-methoxycyclobutyl]acetonitrile]	59	2750	861	> 10000	–	–	–	–
N#CC[C@H]1C[C@](CC#N)(n2cc(-c3nc(-c4cn[nH]c4)cc4ncccc34)cn2)C1 [Example 2, 2,2′-(trans-1-{4-[7-(1H-pyrazol-4-yl)-1,6-naphthyridin-5-yl]-1H-pyrazol-1-yl}cyclobutane-1,3-diyl)diacetonitrile]	50	86	127	> 10000	–	–	–	–
N#CC[C@]1(n2ncc(-c3cc(-c4cnc(N)cn4)cc4ncccc34)n2)C[C@H](C#N)C1 [Example 399, trans-3-{4-[7-(5-aminopyrazin-2-yl)quinolin-5-yl]-2H-1,2,3-triazol-2-yl}-3-(cyanomethyl)cyclobutanecarbonitrile]	–	–	–	–	2400	> 10000	> 10000	> 10000
Cn1nc(-c2cc3ncccc3c(-c3ccn([C@]4(CC#N)C[C@](C)(C#N)C4)n3)n2)cc1N [Example 67, cis-3-{3-[7-(5-amino-1-methyl-1H-pyrazol-3-yl)-1,6-naphthyridin-5-yl]-1H-pyrazol-1-yl}-3-(cyanomethyl)-1-methylcyclobutanecarbonitrile]	39	2180	246	> 10000	–	–	–	–
N#CC[C@]1(n2ncc(-c3cc(-c4ccc(F)cn4)cc4ncccc34)n2)C[C@@H](C#N)C1 [Example 347, cis-3-(cyanomethyl)-3-{4-[7-(5-fluoropyridin-2-yl)quinolin-5-yl]-2H-1,2,3-triazol-2-yl}cyclobutanecarbonitrile]	26	1200	114	> 10000	–	–	–	–
